Experimental data from US11993785B2, “Immersion deposition methods and compositions for use in the same” (Wake Forest University Health Sciences, priority 2018, dated 2024).

Test system: primary sarcoma organoids
Assay: CELLTITER-GLO 3D ATP assay of drug treated primary sarcoma organoids
Assay type: cell-based
Conditions: 3 days, after 7 days organoid culture
Description: The organoids were made using an immersion printing technique using a gelatin composition having a gelatin concentration of 10 mg/mL. To prepare the gelatin composition, gelatin was allowed to completely dissolve, and then the composition was cooled at 4° C. prior to use. The organoids were printed with a new bioprinter, BIO X™ available from CELLINK®, using a new type of printhead, a syringe pump printhead.
The resulting organoids were cultured for 7 days, and then subjected to various drug conditions in culture for 3 more days. Table 1 details the drug and concentration added to the standard culture media (high glucose DMEM supplemented with 10% fetal bovine serum, 1% L-glutamine, 1% penicillin/streptomycin). The organoids were then measured for viability using the CELLTITER-GLO® 3D ATP assay to measure ATP content via luminescence. The resulting signals, shown in FIG. 5, show a trend of organoid viability decreasing as drug concentration increased. Live/dead imaging corroborates the findings of the ATP assay.

Compound: COc1cccc2c1C(=O)c1c(O)c3c(c(O)c1C2=O)C[C@@](O)(C(=O)CO)C[C@@H]3O[C@H]1C[C@H](N)[C@H](O)[C@H](C)O1 [Doxorubicin]
- AVG Signal (lum), ATP assay (1 nM drug in culture media): 5.13E+06 lum
- AVG Signal (lum), ATP assay (100 nM drug in culture media): 2.62E+06 lum
- AVG Signal (lum), ATP assay (10 μM drug in culture media): 1.12E+06 lum

Compound: Cc1ccc(NC(=O)c2ccc(CN3CCN(C)CC3)cc2)cc1Nc1nccc(-c2cccnc2)n1 [Imatinib]
- AVG Signal (lum), ATP assay (5 μM drug in culture media): 9.16E+06 lum
- AVG Signal (lum), ATP assay (50 μM drug in culture media): 6.56E+06 lum
- AVG Signal (lum), ATP assay (500 μM drug in culture media): 1.88E+04 lum
